The values that follow come from the NIST ThermoML archive (doi:10.1016/j.jct.2015.07.039).

For data set [1] the following is noted: 298.15 K; 101.33 kPa; Liquid; Vibrating tube method.
A short description of data set [2]: refractive index (Na D-line) (dimensionless). The settings on record: 298.15 K; 101.33 kPa; Liquid; Standard Abbe refractometry.

± gives the expanded uncertainty stated by the source.

As for `CCCCl` [1-chloropropane], the mass density in data set [1] is reported as 883.81 ± 0.16 kg/m3. Besides, the refractive index in data set [2] came out at 1.38526 ± 0.00032.
